Data as given in patent US20240116892A1, “HETEROCYCLIC AMIDE AND UREA COMPOUNDS AS JAK2 INHIBITORS” (Ajax Therapeutics, Inc., priority 2022, published 2024).

The compounds below were run against JAK2 (JH1 domain-catalytic, Y1007F, Y1008F) kinase (Homo sapiens (Human), UniProt O60674, Y1007F/Y1008F) (assay: JAK2 JH1 Domain Binding Assay). Details: qPCR readout.
Procedure: JAK2 (JH1 domain-catalytic, Y1007F, Y1008F) kinase was expressed as N-terminal fusion to the DNA binding domain of NFkB in transiently transfected HEK293 cells and subsequently tagged with DNA for qPCR detection. Streptavidin-coated magnetic beads were treated with biotinylated small molecule ligands for 30 minutes at room temperature to generate affinity resins for kinase assays. The liganded beads were blocked with excess biotin and washed with blocking buffer (SeaBlock (Pierce), 1% BSA, 0.05% Tween 20, 1 mmol/L DTT) to remove unbound ligand and to reduce nonspecific phage binding. Binding reactions were assembled by combining kinases, liganded affinity beads, and test compounds in 1× binding buffer (1× PBS, 0.05% Tween 20, 0.1% BSA, 1 mmol/L DTT). Test compound was prepared as 111× stocks in 100% DMSO and directly diluted into the assay wells. All reactions were performed in polypropylene 384-well plates in a final volume of 0.02 mL. The assay plates were incubated at room temperature with shaking for 1 hour and the affinity beads were washed with wash buffer (1× PBS, 0.05% Tween 20). The beads were then re-suspended in elution buffer (1× PBS, 0.05% Tween 20, 0.5 μmol/L non-biotinylated affinity ligand) and incubated at room temperature with shaking for 30 minutes. The kinase concentration in the eluate was measured by qPCR.

Sequence of JAK2 (JH1 domain-catalytic, Y1007F, Y1008F) kinase (O60674 849-1124 Y1007F/Y1008F): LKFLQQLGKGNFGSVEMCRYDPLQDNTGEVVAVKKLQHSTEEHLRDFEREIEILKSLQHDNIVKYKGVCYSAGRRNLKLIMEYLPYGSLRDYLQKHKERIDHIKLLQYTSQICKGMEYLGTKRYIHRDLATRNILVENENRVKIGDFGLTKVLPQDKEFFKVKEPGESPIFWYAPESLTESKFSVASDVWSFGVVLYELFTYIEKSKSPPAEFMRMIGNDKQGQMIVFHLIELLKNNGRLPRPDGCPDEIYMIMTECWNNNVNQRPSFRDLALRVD

Compound | Kd [nM]
CN(C(=O)Nc1cc(C(F)(F)F)cn(C)c1=O)[C@@H]1CCN(c2cnc3[nH]ncc3n2)C[C@@H]1F [Example I-83-b, 1-((3S,4R)-3-fluoro-1-(1H-pyrazolo[3,4-b]pyrazin-5-yl)piperidin-4-yl)-1-methyl-3-(1-methyl-2-oxo-5-(trifluoromethyl)-1,2-dihydropyridin-3-yl)urea] | < 10
Cc1cc2nc(N3CCC(N(C)C(=O)Nc4cc(C(F)(F)F)cn(C)c4=O)C(F)(F)C3)cnc2[nH]1 (single isomer, unassigned) [Example I-37-a, (R)- or (S)-1-(3,3-difluoro-1-(6-methyl-5H-pyrrolo[2,3-b]pyrazin-2-yl)piperidin-4-yl)-1-methyl-3-(1-methyl-2-oxo-5-(trifluoromethyl)-1,2-dihydropyridin-3-yl)urea] | < 10
COCc1cc2nc(N3CC[C@@H]4[C@@H](C3)OCCN4C(=O)Nc3cc(C(F)(F)F)cn(C)c3=O)cnc2[nH]1 [Example I-164-b, (4aR,8aR)-6-(6-(methoxymethyl)-5H-pyrrolo[2,3-b]pyrazin-2-yl)-N-(1-methyl-2-oxo-5-(trifluoromethyl)-1,2-dihydropyridin-3-yl)octahydro-1H-pyrido[3,4-b][1,4]oxazine-1-carboxamide] | 10 to 50
CN(C(=O)Nc1cc(C(F)(F)F)cn(C)c1=O)[C@H]1CCN(c2cnccn2)CC1(F)F (single isomer, unassigned) [Example I-22-b] | 10 to 50
CN(C(=O)Nc1cc(C(F)(F)F)cn(C)c1=O)[C@@H]1CCN(c2cnc3[nH]ccc3n2)C[C@@H]1F [Example I-64-a, 1-((3S,4R)-3-fluoro-1-(5H-pyrrolo[2,3-b]pyrazin-2-yl)piperidin-4-yl)-1-methyl-3-(1-methyl-2-oxo-5-(trifluoromethyl)-1,2-dihydropyridin-3-yl)urea] | < 10
COCc1cc2nc(N3CC[C@@H](N(C)C(=O)Nc4cc(C(F)(F)F)cn(C)c4=O)[C@@H](C)C3)cnc2[nH]1 [Example I-159-b, 1-((3S,4R)-1-(6-(methoxymethyl)-5H-pyrrolo[2,3-b]pyrazin-2-yl)-3-methylpiperidin-4-yl)-1-methyl-3-(1-methyl-2-oxo-5-(trifluoromethyl)-1,2-dihydropyridin-3-yl)urea] | < 10
CN(C(=O)Nc1cc(C2CC2)cn([C@H]2CCCOC2)c1=O)C1CCN(c2cnc3[nH]ncc3c2)CC1 (single isomer, unassigned) [Example I-183-a, (S)- or (R)-1-(1-(1H-pyrazolo[3,4-b]pyridin-5-yl)piperidin-4-yl)-3-(5-cyclopropyl-2-oxo-1-(tetrahydro-2H-pyran-3-yl)-1,2-dihydropyridin-3-yl)-1-methylurea] | < 10
CN(C(=O)Nc1cc(C(F)(F)F)cn(C)c1=O)[C@@H]1CCN(c2cnc3[nH]c(=O)n(C)c3c2)C[C@@H]1F [Example I-103-b, 1-((3S,4R)-3-fluoro-1-(1-methyl-2-oxo-2,3-dihydro-1H-imidazo[4,5-b]pyridin-6-yl)piperidin-4-yl)-1-methyl-3-(1-methyl-2-oxo-5-(trifluoromethyl)-1,2-dihydropyridin-3-yl)urea] | < 10
CN(C(=O)Nc1cc(C(F)(F)F)cn(C)c1=O)[C@H]1CCN(c2cnc(NC(=O)C3CC3)cn2)CC1(F)F (single isomer, unassigned) [Example I-34-b] | < 10
CO[C@H]1CN(c2cnc3[nH]ncc3c2)CC[C@H]1N(C)C(=O)Nc1cc(C(F)(F)F)cn(C)c1=O [Example I-88-a, 1-((3S,4R)-3-methoxy-1-(1H-pyrazolo[3,4-b]pyridin-5-yl)piperidin-4-yl)-1-methyl-3-(1-methyl-2-oxo-5-(trifluoromethyl)-1,2-dihydropyridin-3-yl)urea] | < 10
CC1CN(C(=O)Nc2cc(C(F)(F)F)cn(C)c2=O)C2(CCN(c3cnc4[nH]cc(F)c4n3)CC2)C1 (single isomer, unassigned) [Example I-54-b] | 50 to 1000
CC(=O)N1CCC(c2n[nH]c3ncc(N4CC[C@H](N(C)C(=O)Nc5cc(C(F)(F)F)cn(C)c5=O)C(F)(F)C4)cc23)CC1 (single isomer, unassigned) [Example I-123-b] | < 10
CN(C(=O)Nc1cc(C(F)(F)F)cn(C)c1=O)[C@H]1CCN(c2cnc3[nH]n(C)c(=O)c3c2)C[C@H]1F [Example I-89-b, 1-((3R,4S)-3-fluoro-1-(2-methyl-3-oxo-2,3-dihydro-1H-pyrazolo[3,4-b]pyridin-5-yl)piperidin-4-yl)-1-methyl-3-(1-methyl-2-oxo-5-(trifluoromethyl)-1,2-dihydropyridin-3-yl)urea] | 10 to 50
CN(C(=O)Nc1cc(C(F)(F)F)cn(C)c1=O)[C@H]1CCN(c2cnc3cn[nH]c3c2)C[C@H]1F [Example I-95-a, 1-((3R,4S)-3-fluoro-1-(1H-pyrazolo[4,3-b]pyridin-6-yl)piperidin-4-yl)-1-methyl-3-(1-methyl-2-oxo-5-(trifluoromethyl)-1,2-dihydropyridin-3-yl)urea] | < 10
CN(C(=O)Nc1cc(C(F)(F)F)cn(C)c1=O)C1CCCN(c2cnc3[nH]ccc3n2)CC1 (single isomer, unassigned) [Example I-41-a, (R)- or (S)-1-(1-(5H-pyrrolo[2,3-b]pyrazin-2-yl)azepan-4-yl)-1-methyl-3-(1-methyl-2-oxo-5-(trifluoromethyl)-1,2-dihydropyridin-3-yl)urea] | 1000 to 5000
CN(C(=O)Nc1cc(C(F)(F)F)cn(C)c1=O)[C@@H]1CCN(c2cnc3[nH]nc(OC[C@H]4COCCO4)c3c2)C[C@@H]1F [Example I-102-a, 1-((3S,4R)-1-(3-(((R)-1,4-dioxan-2-yl)methoxy)-1H-pyrazolo[3,4-b]pyridin-5-yl)-3-fluoropiperidin-4-yl)-1-methyl-3-(1-methyl-2-oxo-5-(trifluoromethyl)-1,2-dihydropyridin-3-yl)urea] | < 10
C[C@@H]1CN(c2cnc3[nH]ccc3n2)CC[C@@H]1N(C)C(=O)Nc1cc(C(F)(F)F)cn(C)c1=O [Example I-58-a, 1-methyl-1-((3R,4S)-3-methyl-1-(5H-pyrrolo[2,3-b]pyrazin-2-yl)piperidin-4-yl)-3-(1-methyl-2-oxo-5-(trifluoromethyl)-1,2-dihydropyridin-3-yl)urea] | < 10
CN(C(=O)Nc1cc(C(F)(F)F)cn(C)c1=O)[C@H]1CCN(c2cnc3[nH]nc(OC4CCOCC4)c3c2)C[C@H]1F [Example I-107-b, 1-((3R,4S)-3-fluoro-1-(3-((tetrahydro-2H-pyran-4-yl)oxy)-1H-pyrazolo[3,4-b]pyridin-5-yl)piperidin-4-yl)-1-methyl-3-(1-methyl-2-oxo-5-(trifluoromethyl)-1,2-dihydropyridin-3-yl)urea] | < 10

Results, then the compound that gave them:

Kd [nM] | Compound
< 10 | COc1n[nH]c2ncc(C34CC(N(C)C(=O)Nc5cc(C(F)(F)F)cn(C)c5=O)(C3)C4)cc12 [Example I-156, 1-(3-(3-methoxy-1H-pyrazolo[3,4-b]pyridin-5-yl)bicyclo[1.1.1]pentan-1-yl)-1-methyl-3-(1-methyl-2-oxo-5-(trifluoromethyl)-1,2-dihydropyridin-3-yl)urea]
< 10 | CN(C(=O)Nc1cc(C(F)(F)F)cn(C)c1=O)C1CCN(c2cnc3[nH]ccc3n2)CC1 [Example I-15, 1-(1-(5H-pyrrolo[2,3-b]pyrazin-2-yl)piperidin-4-yl)-1-methyl-3-(1-methyl-2-oxo-5-(trifluoromethyl)-1,2-dihydropyridin-3-yl)urea]
< 10 | CN(C)c1n[nH]c2ncc(N3CCC(N(C)C(=O)Nc4cc(C(F)(F)F)cn(C)c4=O)CC3)cc12 [Example I-46, 1-(1-(3-(dimethylamino)-1H-pyrazolo[3,4-b]pyridin-5-yl)piperidin-4-yl)-1-methyl-3-(1-methyl-2-oxo-5-(trifluoromethyl)-1,2-dihydropyridin-3-yl)urea]
< 10 | CC(=O)Nc1cnc(N2CCC(N(C)C(=O)Nc3cc(C(F)(F)F)cn(C)c3=O)CC2)cn1 [Example I-14, N-(5-(4-(1-methyl-3-(1-methyl-2-oxo-5-(trifluoromethyl)-1,2-dihydropyridin-3-yl)ureido)piperidin-1-yl)pyrazin-2-yl)acetamide]
< 10 | CN(C(=O)Nc1cc(C(F)(F)F)cn(C)c1=O)C12CC(c3cnc4[nH]nc(OC[C@H]5COCCO5)c4c3)(C1)C2 [Example I-158, (R)-1-(3-(3-((1,4-dioxan-2-yl)methoxy)-1H-pyrazolo[3,4-b]pyridin-5-yl)bicyclo[1.1.1]pentan-1-yl)-1-methyl-3-(1-methyl-2-oxo-5-(trifluoromethyl)-1,2-dihydropyridin-3-yl)urea]
< 10 | Cn1cc(C(F)(F)F)cc(NC(=O)C2(C3CCN(c4cnc5[nH]cc(F)c5n4)CC3)CC2)c1=O [Example I-65, 1-(1-(7-fluoro-5H-pyrrolo[2,3-b]pyrazin-2-yl)piperidin-4-yl)-N-(1-methyl-2-oxo-5-(trifluoromethyl)-1,2-dihydropyridin-3-yl)cyclopropane-1-carboxamide]
< 10 | Cn1cc(C(F)(F)F)cc(NC(=O)C2(C3CCN(c4cnc5[nH]ccc5n4)CC3)CC2)c1=O [Example I-85, 1-(1-(5H-pyrrolo[2,3-b]pyrazin-2-yl)piperidin-4-yl)-N-(1-methyl-2-oxo-5-(trifluoromethyl)-1,2-dihydropyridin-3-yl)cyclopropane-1-carboxamide]
50 to 1000 | Cc1cc(NC(=O)C2(C3CCN(c4cnccn4)CC3)CC2)cc(C(F)(F)F)c1 [Example I-4, N-(3-methyl-5-(trifluoromethyl)phenyl)-1-(1-(pyrazin-2-yl)piperidin-4-yl)cyclopropane-1-carboxamide]
